# Experimental data taken from patent publication US12319655B2, “RAF kinase inhibitors and methods of use thereof” (Deciphera Pharmaceuticals, LLC, priority 2021, dated 2025).
# Tested on: Miapaca-2 cells
# Experiment: MiaPaca-2 Combination Cell Proliferation Assay (2) with cobimetinib
# Assay type: cell-based
# Details: MiaPaca-2 cell proliferation, read-out: MiaPaca-2 Combo (2) IC50
# Procedure: MiaPaca-2 Combination Cell Proliferation Assay (2)
# Miapaca-2 cells (catalog #CRL-1420) are obtained from the American Type Culture Collect (ATCC, Manassas, VA). Briefly, cells were grown in DMEM supplemented with 10% characterized fetal bovine serum (Invitrogen, Carlsbad, CA), 2.5% New Zealand sourced horse serum and 1% Penicillin/Streptomycin/L-Glutamine at 37° C., 5% CO2, and 95% humidity. Cells are expanded until reaching 70-95% confluency at which point they are subcultured or harvested for assay use. Using the Beckman Coulter Echo 650, a threefold, 8-point serial dilution of compound was spotted column wise into a 384 well black, clear bottom, tissue culture treated plate. Likewise, a threefold, 8-point serial dilution of cobimetinib was spotted row wise into the 384 well black, clear bottom plate containing compound. DMSO concentration was constant across all wells at 0.4%. Seven hundred fifty cells are added per well in 50 μL complete growth medium in each 384-well plate. Plates are incubated for 67-72 hours at 37° C., 5% CO2, and 95% humidity. At the end of the incubation, 10 μL of a 440 μM solution of resazurin (Sigma, St. Louis, MO) in PBS is added to each well of the plate and plates are incubated for an additional 4-6 hours at 37° C., 5% CO2, and 95% humidity. Plates are read on a Synergy2 or equivalent reader (Biotek, Winooski VT) using an excitation of 540 nm and an emission of 600 nm. Drug synergy was assessed via BLISS analysis in the Combenefit software (Cancer Research UK Cambridge Institute, Cambridge, UK). Data is analyzed using Prism software (Graphpad, San Diego, CA) to calculate IC50 values. Shifts in test compound IC50 values are reported from top-constrained combination therapy curves.
row,SMILES,IC50
1,CNC(=O)c1cc(-c2cc(-c3cc(NC(=O)c4ccnc(C(C)C)c4)ccc3C)ccn2)ccn1 [Example 443],100 to 500 nM
2,CNC(=O)c1cc(-c2cc(-c3cc(NC(=O)c4ccnc(C(C)(C)F)c4)ccc3F)ccn2)ccn1 [Example 479],1000 to 10000 nM
3,Cc1cc(-c2cc(NC(=O)c3ccnc(C(C)(C)F)c3)ccc2C)cc(-c2ccnc(C(N)=O)c2)n1 [Example 484],500 to 1000 nM

# More lines, now with the values ahead:
row,IC50,SMILES
1,500 to 1000 nM,CNC(=O)c1cc(-c2cncc(-c3cc(NC(=O)c4ccnc(C(C)(F)F)c4)ccc3C)c2)ccn1 [Example 440]
2,100 to 500 nM,CNC(=O)c1cc(-c2cc(-c3cc(NC(=O)c4ccnc(C(C)(F)F)c4)ccc3C)ccn2)ccn1 [Example 441]
3,100 to 500 nM,CNC(=O)c1cc(-c2cncc(-c3cc(NC(=O)c4ccnc(C(C)C)c4)ccc3C)c2)ccn1 [Example 445]
4,100 to 500 nM,Cc1ccc(NC(=O)c2ccnc(C(C)(C)F)c2)cc1-c1ccnc(-c2ccnc(C(N)=O)c2)c1 [Example 476]
5,1000 to 10000 nM,CNC(=O)c1cc(-c2cc(-c3cc(NC(=O)c4ccnc(C(C)(C)F)c4)c(F)cc3F)ccn2)ccn1 [Example 482]

# Tested on: Miapaca-2 cells
# Experiment: MiaPaca-2 Cell Proliferation Assay (1)
# Assay type: cell-based
# Details: Homo sapiens, MIA PaCa-2, single agent, read-out: MiaPaca2 (1) IC50
# Outline: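 Resazurin was added after compound exposure and incubated 5-6 h, then fluorescence read at 540 nm excitation and 600 nm emission to give IC50.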
row,SMILES,IC50
1,Cc1ccc(NC(=O)c2cn(C(C)C)nn2)cc1-c1cncc(-c2cc(NC(=O)C3CC3)ncn2)c1 [Example 412],500 to 1000 nM
2,COC(=O)Nc1cc(-c2cc(-c3cc(NC(=O)c4ccnc(C(C)(C)F)c4)ccc3C)nc(C)n2)ccn1 [Example 416],500 to 1000 nM
3,Cc1ccc(NC(=O)c2ccnc(C(C)(C)F)c2)cc1-c1cncc(-c2ccnc(NC(=O)C3CC3)c2)c1 [Example 417],500 to 1000 nM
4,Cc1cc(F)c(NC(=O)c2ccnc(C(C)(C)C#N)c2)cc1-c1cncc(-c2ccnc(NC(=O)C3CC3)c2)c1 [Example 418],100 to 500 nM
5,Cc1ccc(NC(=O)c2ccnc(C(C)(F)F)c2)cc1-c1cncc(-c2cc(NC(=O)C3CC3)ncn2)c1 [Example 419],100 to 500 nM
6,Cc1ccc(NC(=O)c2cc(C3CC3)on2)cc1-c1cncc(-c2cc(NC(=O)C3CC3)ncn2)c1 [Example 421],1000 to 10000 nM
7,Cc1ncc(NC(=O)c2ccnc(C(C)(C)F)c2)cc1-c1cncc(-c2ccnc(NC(=O)C3CC3)c2)c1 [Example 433],500 to 1000 nM
8,CNC(=O)c1cc(-c2cc(-c3cc(NC(=O)c4ccnc(C(C)(C)C#N)c4)ccc3OC)ccn2)ccn1 [Example 437],1000 to 10000 nM
9,COc1ccc(NC(=O)c2ccnc(C(C)(C)C#N)c2)cc1-c1cccc(-c2cc(NC(=O)C3CC3)ncn2)c1 [Example 438],1000 to 10000 nM

# The next lines start with the values.
row,IC50,SMILES
1,500 to 1000 nM,COC(=O)Nc1cc(-c2cncc(-c3cc(NC(=O)c4ccnc(C5(C#N)CC5)c4)ccc3C)c2)ncn1 [Example 405]
2,500 to 1000 nM,Cc1ncc(NC(=O)c2ccnc(C(C)(C)F)c2)cc1-c1cncc(-c2cc(NC(=O)C3CC3)ncn2)c1 [Example 406]
3,1000 to 10000 nM,Cc1ncc(NC(=O)c2ccnc(C(C)(C)C#N)c2)cc1-c1cncc(-c2cc(NC(=O)C3CC3)ncn2)c1 [Example 410]
4,1000 to 10000 nM,Cc1ccc(NC(=O)c2ccnc(C(C)(C)F)c2)cc1-c1cncc(-c2cc(N)ncn2)c1 [Example 411]
5,1000 to 10000 nM,CNC(=O)c1cc(-c2cncc(-c3cc(NC(=O)c4ccnc(C(C)(C)F)c4)ccc3C)c2)ccn1 [Example 413]
6,100 to 500 nM,COC(=O)Nc1cc(-c2cncc(-c3cc(NC(=O)c4ccnc(C(C)(C)C#N)c4)ccc3C)c2)ncn1 [Example 414]
7,1000 to 10000 nM,CNC(=O)c1cc(-c2nccc(-c3cc(NC(=O)c4ccnc(C(C)(C)F)c4)c(F)cc3C)n2)ccn1 [Example 427]
8,1000 to 10000 nM,Cc1ccc(NC(=O)c2cnn(C3CC3)c2)cc1-c1cncc(-c2cc(NC(=O)C3CC3)ncn2)c1 [Example 430]
9,1000 to 10000 nM,Cc1ccc(NC(=O)c2cc(C(C)(C)C)on2)cc1-c1cncc(-c2cc(NC(=O)C3CC3)ncn2)c1 [Example 431]
10,100 to 500 nM,Cc1ccc(NC(=O)c2ccnc(C(C)C)c2)cc1-c1cncc(-c2cc(NC(=O)C3CC3)ncn2)c1 [Example 434]
11,500 to 1000 nM,COC(=O)Nc1cc(-c2cncc(-c3cc(NC(=O)c4ccnc(C(C)(C)F)c4)ccc3C)c2)ccn1 [Example 435]
12,1000 to 10000 nM,Cc1ccc(NC(=O)c2cc(C3CC3)n(C)n2)cc1-c1nccc(-c2ccnc(NC(=O)C3CC3)c2)n1 [Example 436]

# Tested on: Miapaca-2 cells
# Experiment: MiaPaca-2 Combination Cell proliferation Assay (1) with cobimetinib
# Assay type: cell-based
# Details: MiaPaca-2 cell proliferation, read-out: MiaPaca-2 Combo (1) IC50
row,IC50,SMILES
1,100 to 500 nM,CNC(=O)c1cc(-c2cncc(-c3cc(NC(=O)c4ccnc(C(C)(C)F)c4)ccc3C)c2)ccn1 [Example 413]
2,100 to 500 nM,COc1ccc(NC(=O)c2ccnc(C(C)(C)C#N)c2)cc1-c1cccc(-c2cc(NC(=O)C3CC3)ncn2)c1 [Example 438]
